Target: T1, glucocerebrosidase (GCase) (Homo sapiens, UniProt P04062)
T1 sequence (P04062 40-536): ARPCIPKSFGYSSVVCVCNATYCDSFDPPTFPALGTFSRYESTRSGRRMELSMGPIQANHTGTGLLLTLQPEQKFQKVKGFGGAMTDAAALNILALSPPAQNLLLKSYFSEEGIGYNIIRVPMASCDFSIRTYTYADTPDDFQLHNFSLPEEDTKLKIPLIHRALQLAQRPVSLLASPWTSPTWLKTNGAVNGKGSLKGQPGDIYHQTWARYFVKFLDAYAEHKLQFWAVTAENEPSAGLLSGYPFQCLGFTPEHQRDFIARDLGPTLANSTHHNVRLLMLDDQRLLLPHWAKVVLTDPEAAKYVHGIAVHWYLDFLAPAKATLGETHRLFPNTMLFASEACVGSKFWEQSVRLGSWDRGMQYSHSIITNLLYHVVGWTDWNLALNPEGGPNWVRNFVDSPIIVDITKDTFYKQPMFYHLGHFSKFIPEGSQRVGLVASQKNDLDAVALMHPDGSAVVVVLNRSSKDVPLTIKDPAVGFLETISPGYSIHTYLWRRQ
Assay: Glucocerebrosidase activation (Table 1, Exemplary Compounds and Activities)
Type: biochemical
Conditions: activation of glucocerebrosidase; for Emax: read-out: Maximum Activation (Emax)
Excerpt: The compounds disclosed herein preferably modulate activity of glucocerebrosidase. Modulation may include inhibiting or decreasing glucocerebrosidase activity. Modulation also may include activating or increasing glucocerebrosidase activity. Glucocerebrosidase activity may be assessed utilizing methods known in the art and the methods disclosed herein, including the methods disclosed in the Examples provided herein. In some embodiments, the compounds decrease or increase glucocerebrosidase activity relative to a control (e.g., by at least about 10%, 20%, 30%, 40%, 50%, 60%, 70%, 80%, 90%, 100%, 200%, 300%, 400%, 500%, 600%, 700%, 800%, 900%, 1000% or more (or within a range bounded by any of these values)). In other embodiments, the compounds activate glucocerebrosidase greater than about 2-fold, 3-fold, 4-fold, 5-fold, 10-fold, 20-fold, 30-fold, 40-fold, 50-fold, 60-fold, 70-fold, 80-fold, 90-fold, or 100-fold, relative to a control. […] In other embodiments, an AC50 value for the compound in regard to activation of glucocerebrosidase may be determined and preferably the compound has an AC50 value of less than about 10 μM, 5 μM, or 1 μM, 0.5 μM, 0.1 μM, 0.05 μM, 0.01 μM, 0.005 μM, or 0.001 μM (or within a range bounded by any of these values).
Methods for measuring glucocerebrosidase activity are known in the art. (See, e.g., U.S. Publication No. 2017/0001976 and U.S. Publication No. 2017/0002013 and Zheng et al. “Design and Synthesis of Potent Quinazolines as Selective β-Glucocerebrosidase Modulators, J. Med. Chem. 2016 September 22; 59(18): 8508-8520; the contents of which are incorporated herein by reference in their entireties).
The disclosed pyrrolopyrimidine compounds were synthesized and tested using the methods described below. Additional methods for synthesizing and testing pyrrolopyrimidine compounds are described in the art. (See, e.g., Zheng et al., β-Glucocerebrosidase Modulators Promote Dimerization of β-Glucocerebrosidase and Reveal an Allosteric Binding Site, J. Am. Chem. Soc., 2018, 140 (18), pp 5914-5924; and U.S. Pat. No. 9,802,942; the contents of which are incorporated herein by reference in their entireties).

Structure (SMILES) | AC50 [µM] | Emax [%]
Cc1cc(C)n2ccc(C(=O)Nc3cccc(CC(=O)ON4C(=O)CCC4=O)c3)c2n1 [compound 3, 2,5-dioxopyrrolidin-1-yl 2-(3-(2,4-dimethylpyrrolo[1,2-a]pyrimidine-8-carboxamido)phenyl)acetate] | 9.09 | 500
Cc1cc(C)n2ccc(C(=O)Nc3cccc4c3CCCC4)c2n1 [compound 11] | 1.41 | 400
Cc1cc(C)n2ccc(C(=O)NCC3COc4ccccc4O3)c2n1 (stereo not shown) [compound 23] | 28.2 | 644
Cc1cc(C)n2ccc(C(=O)Nc3ccc(CCC(=O)ON4C(=O)CCC4=O)cc3)c2n1 [compound 27] | 2.82 | 620
Cc1cc(C)n2ccc(C(=O)Nc3ccc(C(=O)ON4C(=O)CCC4=O)cc3)c2n1 [compound 28] | 50 | 115
Cc1cc(C)n2ccc(C(=O)Nc3ccc(CC(=O)ON4C(=O)CCC4=O)cc3)c2n1 [compound 29] | 4.47 | 374
Cc1cc(C)n2ccc(C(=O)Nc3c(C)nn(Cc4ccccc4)c3C)c2n1 [compound 33] | 39.8 | 914
Cc1cc(C)n2ccc(C(=O)Nc3ccccc3Oc3ccccc3)c2n1 [compound 35] | 2.24 | 298
Cc1cc(C)n2ccc(C(=O)Nc3cccc(CCC(=O)ON4C(=O)CCC4=O)c3)c2n1 [compound 38] | 4.47 | 810
COC(=O)Cc1cc(NC(=O)c2ccn3c(C)cc(C)nc23)ccc1-c1cn(CCOCCOCCO)nn1 [compound 39] | 10 | 
COC(=O)Cc1cc(NC(=O)c2ccn3c(C)cc(-c4cccnc4)nc23)ccc1-c1cn(CCOCCOCCO)nn1 [compound 40] | 4.47 | 
Cc1cc(C)n2ccc(C(=O)Nc3ccc(-c4cn(CCOCCOCCO)nn4)c(CC(=O)O)c3)c2n1 [compound 41] | 28.2 | 
Cc1cc(C)n2ccc(C(=O)NCc3ccccc3CNC(=O)c3ccn4c(C)cc(C)nc34)c2n1 [compound 42] | 5 | 715
Cc1cc(C)n2ccc(C(=O)Nc3nc4c(s3)CCCC4)c2n1 [compound 44] | 1.58 | 342
Cc1cc(C)n2ccc(C(=O)Nc3nc4c(s3)CC(C)CC4)c2n1 (stereo not shown) [compound 45] | 1.78 | 325
Cc1cc(C)n2ccc(C(=O)Nc3nc4c(s3)CC(C)(C)CC4)c2n1 [compound 46] | 1.12 | 230
CCOC(=O)Cc1cc(NC(=O)c2ccn3c(C)cc(C)nc23)ccc1CCCOCCOCCOCCOCCNC(=O)C1CCCCC1 [compound 48] | 3.16 | 796
Cc1cc(C)n2ccc(C(=O)Nc3ccc(CCCOCCOCCOCCOCCNC(=O)C4CCCCC4)c(CC(=O)ON4C(=O)CCC4=O)c3)c2n1 [compound 49] | 3.55 | 
Cc1cc(C)n2ccc(C(=O)Nc3cccc(CC(=O)Oc4ccccc4)c3)c2n1 [compound 50] | 4.47 | 230
Cc1cc(C)n2ccc(C(=O)Nc3cccc(CC(=O)Oc4ccc([N+](=O)[O-])cc4)c3)c2n1 [compound 51] | 10 | 172

Now from value to compound:

AC50 [µM] | Emax [%] | Structure (SMILES)
6.59 | 450 | COC(=O)Cc1cccc(NC(=O)c2ccn3c(C)cc(C)nc23)c1 [compound 1]
30 | 550 | Cc1cc(C)n2ccc(C(=O)Nc3cccc(CC(=O)O)c3)c2n1 [compound 2]
1.18 | 400 | CCOC(=O)c1cccc(NC(=O)c2ccn3c(C)cc(C)nc23)c1 [compound 4]
2.87 | 175 | Cc1cc(C)n2ccc(C(=O)Nc3cccc(C(=O)O)c3)c2n1 [compound 5]
4.59 | 460 | Cc1cc(C)n2ccc(C(=O)Nc3cccc(C(=O)ON4C(=O)CCC4=O)c3)c2n1 [compound 6]
3.39 | 210 | Cc1cc(C)n2ccc(C(=O)Nc3cccc(N)c3)c2n1 [compound 7]
3.43 | 480 | Cc1cc(C)n2ccc(C(=O)Nc3cccc(NC(=O)CCl)c3)c2n1 [compound 8]
2.23 | 280 | Cc1cc(C)n2ccc(C(=O)Nc3cccc(C(C)C)c3)c2n1 [compound 9]
0.77 | 202 | Cc1cc(C)n2ccc(C(=O)Nc3cccc4c3CCC4)c2n1 [compound 10]
3.44 | 300 | Cc1cc(C)n2ccc(C(=O)Nc3cccc(CC(C)C)c3)c2n1 [compound 12]
0.63 | 180 | COC(=O)CCc1ccc(NC(=O)c2ccn3c(C)cc(C)nc23)cc1 [compound 13]
6.46 |  | C=CC(=O)Nc1cccc(NC(=O)c2ccn3c(C)cc(C)nc23)c1 [compound 14]
36.6 | 700 | Cc1cc(C)n2ccc(C(=O)Nc3ccc(CCC(=O)O)cc3)c2n1 [compound 15]
1.49 | 225 | Cc1cc(C)n2ccc(C(=O)Nc3ccc4c(c3)C(=O)CC4)c2n1 [compound 16]
3.88 | 750 | Cc1cc(C)n2ccc(C(=O)Nc3ccc4c(c3)C(=O)CCC4)c2n1 [compound 17]
0.71 | 250 | CCOC(=O)c1ccc(NC(=O)c2ccn3c(C)cc(C)nc23)cc1 [compound 19]
6.1 | 550 | CCOC(=O)Cc1ccc(NC(=O)c2ccn3c(C)cc(C)nc23)cc1 [compound 20]
35.5 | 622 | Cc1cc(C)n2ccc(C(=O)Nc3ccc(C(=O)O)cc3)c2n1 [compound 21]
35.5 | 429 | Cc1cc(C)n2ccc(C(=O)Nc3ccc(CC(=O)O)cc3)c2n1 [compound 22]
3.55 | 527 | Cc1cc(C)n2ccc(C(=O)Nc3ccc4c(c3)CCCC4)c2n1 [compound 24]
7.94 | 456 | Cc1cc(C)n2ccc(C(=O)Nc3ccc4c(c3)COC4)c2n1 [compound 25]
1.12 | 290 | Cc1cc(C)n2ccc(C(=O)Nc3ccc4c(c3)CCC4)c2n1 [compound 26]
1.12 | 198 | Cc1cc(C)n2ccc(C(=O)Nc3ccc4c(c3)CCO4)c2n1 [compound 30]
1 | 355 | Cc1cc(C)n2ccc(C(=O)Nc3ccc4c(c3)CCCC4=O)c2n1 [compound 31]
3.55 | 578 | COC(=O)CCc1cccc(NC(=O)c2ccn3c(C)cc(C)nc23)c1 [compound 34]
1.42 | 280 | Cc1cc(C)n2ccc(C(=O)Nc3cccc(Oc4ccccc4)c3)c2n1 [compound 36]
8.91 | 427 | Cc1cc(C)n2ccc(C(=O)Nc3cccc(CCC(=O)O)c3)c2n1 [compound 37]
1.41 | 296 | Cc1cc(C)n2ccc(C(=O)Nc3cccc(-c4ccccc4)c3)c2n1 [compound 43]

From patent publication US10882865B2, “Pyrrolopyrimidine compounds and uses thereof for modulating glucocerebrosidase activity” (Northwestern University, priority 2018, dated 2021)
